Results taken from PMC12446476 (Nature Communications, 2025).
≈ marks a conversion by molar mass, not a printed value. Where two headings read alike, the source gives them in different places.

System: non-gonococcal Neisseria
Assay: MIC determination for non-gonococcal Neisseria, agar dilution
Type: cell-based, Neisseria species
Settings: read-out: Minimum inhibitory concentration
Excerpt: The 2024 WHO N. gonorrhoeae reference strains were used for quality control. Only whole MIC doubling dilutions are reported. Clinical breakpoints or the epidemiological cutoff (ECOFF, to indicate azithromycin resistance) from EUCAST (v14.0, https://www.eucast.org/clinical_breakpoints) were used to classify isolates as antimicrobial susceptible or resistant. […] Two times the standard inoculum defined by CLSI was used to establish consistent growth in untreated control samples for some strains. In vitro time-kill assays were performed according to CLSI guidelines[65] using Columbia Broth (BD Difco) supplemented with 1% IsoVitaleX Enrichment (BD). Viable bacterial counts were generated by plating 10-fold serially diluted samples on GC agar plates containing 1% IsoVitaleX Enrichment (BD).

With `Cc1c(CN(C)C(=O)/C=C/c2cnc3c(c2)N[C@H](C)[C@H](O)C(=O)N3)oc2ccccc12` [Debio 1453] the MIC (Neisseria animalis 1, Consensus) was 0.25 µg/mL (≈ 0.595 µM), the MIC (Neisseria animalis 1, Replicate 1) was 0.25 µg/mL (≈ 0.595 µM) and the MIC (Neisseria animalis 1, Replicate 2) was 0.25 µg/mL (≈ 0.595 µM). It also gave an MIC (Neisseria animalis 1, Replicate 3) of 0.25 µg/mL (≈ 0.595 µM), an MIC (Neisseria cinerea 1, Consensus) of 0.032 µg/mL (≈ 0.0761 µM) and an MIC (Neisseria cinerea 1, Replicate 1) of 0.032 µg/mL (≈ 0.0761 µM). The MIC (Neisseria cinerea 1, Replicate 2) was 0.032 µg/mL (≈ 0.0761 µM), the MIC (Neisseria cinerea 1, Replicate 3) was 0.032 µg/mL (≈ 0.0761 µM) and the MIC (Neisseria cinerea 2, Consensus) was 0.25 µg/mL (≈ 0.595 µM). The MIC (Neisseria cinerea 2, Replicate 1) was 0.25 µg/mL (≈ 0.595 µM), the MIC (Neisseria cinerea 2, Replicate 2) was 0.25 µg/mL (≈ 0.595 µM) and the MIC (Neisseria cinerea 2, Replicate 3) was 0.25 µg/mL (≈ 0.595 µM). For the same compound, the MIC (Neisseria cinerea 3, Consensus) was 0.008 µg/mL (≈ 0.019 µM), the MIC (Neisseria cinerea 3, Replicate 1) was 0.008 µg/mL (≈ 0.019 µM) and the MIC (Neisseria cinerea 3, Replicate 2) was 0.016 µg/mL (≈ 0.0381 µM). It also gave an MIC (Neisseria cinerea 3, Replicate 3) of 0.008 µg/mL (≈ 0.019 µM), an MIC (Neisseria cinerea 6, Consensus) of 0.016 µg/mL (≈ 0.0381 µM) and an MIC (Neisseria cinerea 6, Replicate 1) of 0.032 µg/mL (≈ 0.0761 µM). It also gave an MIC (Neisseria cinerea 6, Replicate 2) of 0.016 µg/mL (≈ 0.0381 µM), an MIC (Neisseria cinerea 6, Replicate 3) of 0.016 µg/mL (≈ 0.0381 µM) and an MIC (Neisseria cinerea 7, Consensus) of 0.5 µg/mL (≈ 1.19 µM). It also gave an MIC (Neisseria cinerea 7, Replicate 1) of 0.5 µg/mL (≈ 1.19 µM), an MIC (Neisseria cinerea 7, Replicate 2) of 0.5 µg/mL (≈ 1.19 µM) and an MIC (Neisseria cinerea 7, Replicate 3) of 0.5 µg/mL (≈ 1.19 µM). It also gave an MIC (Neisseria cinerea 8, Replicate 1) of 0.25 µg/mL (≈ 0.595 µM), an MIC (Neisseria cinerea 9, Consensus) of 0.5 µg/mL (≈ 1.19 µM) and an MIC (Neisseria cinerea 9, Replicate 1) of 0.5 µg/mL (≈ 1.19 µM). The MIC (Neisseria cinerea 9, Replicate 2) was 0.5 µg/mL (≈ 1.19 µM), the MIC (Neisseria cinerea 9, Replicate 3) was 0.5 µg/mL (≈ 1.19 µM) and the MIC (Neisseria elongata 2, Consensus) was 2 µg/mL (≈ 4.76 µM). It also gave an MIC (Neisseria elongata 2, Replicate 1) of 2 µg/mL (≈ 4.76 µM), an MIC (Neisseria elongata 2, Replicate 2) of 2 µg/mL (≈ 4.76 µM) and an MIC (Neisseria elongata 2, Replicate 3) of 2 µg/mL (≈ 4.76 µM). It also gave an MIC (Neisseria elongata 3, Consensus) of 1 µg/mL (≈ 2.38 µM), an MIC (Neisseria elongata 3, Replicate 1) of 1 µg/mL (≈ 2.38 µM) and an MIC (Neisseria elongata 3, Replicate 2) of 1 µg/mL (≈ 2.38 µM). It also gave an MIC (Neisseria elongata 3, Replicate 3) of 1 µg/mL (≈ 2.38 µM), an MIC (Neisseria flava 1, Replicate 2) of 0.064 µg/mL (≈ 0.152 µM) and an MIC (Neisseria flavescens 1, Consensus) of 0.016 µg/mL (≈ 0.0381 µM). It also gave an MIC (Neisseria flavescens 1, Replicate 1) of 0.032 µg/mL (≈ 0.0761 µM), an MIC (Neisseria flavescens 1, Replicate 2) of 0.016 µg/mL (≈ 0.0381 µM) and an MIC (Neisseria flavescens 1, Replicate 3) of 0.016 µg/mL (≈ 0.0381 µM). It also gave an MIC (Neisseria flavescens 2, Replicate 2) of 0.25 µg/mL (≈ 0.595 µM), an MIC (Neisseria flavescens 3, Consensus) of 0.25 µg/mL (≈ 0.595 µM) and an MIC (Neisseria flavescens 3, Replicate 1) of 0.25 µg/mL (≈ 0.595 µM). It also gave an MIC (Neisseria flavescens 3, Replicate 2) of 0.25 µg/mL (≈ 0.595 µM), an MIC (Neisseria flavescens 3, Replicate 3) of 0.25 µg/mL (≈ 0.595 µM) and an MIC (Neisseria flavescens 4, Consensus) of 0.5 µg/mL (≈ 1.19 µM). The MIC (Neisseria flavescens 4, Replicate 1) was 0.25 µg/mL (≈ 0.595 µM), the MIC (Neisseria flavescens 4, Replicate 2) was 0.5 µg/mL (≈ 1.19 µM) and the MIC (Neisseria flavescens 4, Replicate 3) was 0.5 µg/mL (≈ 1.19 µM). It also gave an MIC (Neisseria flavescens 5, Consensus) of 0.5 µg/mL (≈ 1.19 µM), an MIC (Neisseria flavescens 5, Replicate 1) of 0.25 µg/mL (≈ 0.595 µM) and an MIC (Neisseria flavescens 5, Replicate 2) of 1 µg/mL (≈ 2.38 µM). The MIC (Neisseria flavescens 5, Replicate 3) was 0.5 µg/mL (≈ 1.19 µM), the MIC (Neisseria flavescens 6, Consensus) was 0.064 µg/mL (≈ 0.152 µM) and the MIC (Neisseria flavescens 6, Replicate 1) was 0.064 µg/mL (≈ 0.152 µM). The MIC (Neisseria flavescens 6, Replicate 2) was 0.064 µg/mL (≈ 0.152 µM), the MIC (Neisseria flavescens 6, Replicate 3) was 0.064 µg/mL (≈ 0.152 µM) and the MIC (Neisseria flavescens 7, Consensus) was 0.5 µg/mL (≈ 1.19 µM). It also gave an MIC (Neisseria flavescens 7, Replicate 1) of 0.5 µg/mL (≈ 1.19 µM), an MIC (Neisseria flavescens 7, Replicate 2) of 0.5 µg/mL (≈ 1.19 µM) and an MIC (Neisseria flavescens 7, Replicate 3) of 1 µg/mL (≈ 2.38 µM). For the same compound, the MIC (Neisseria flavescens 8, Replicate 1) was 0.064 µg/mL (≈ 0.152 µM), the MIC (Neisseria flavescens 9, Consensus) was 1 µg/mL (≈ 2.38 µM) and the MIC (Neisseria flavescens 9, Replicate 1) was 1 µg/mL (≈ 2.38 µM). For the same compound, the MIC (Neisseria flavescens 9, Replicate 2) was 1 µg/mL (≈ 2.38 µM), the MIC (Neisseria flavescens 9, Replicate 3) was 1 µg/mL (≈ 2.38 µM) and the MIC (Neisseria flavescens 10, Replicate 2) was 0.25 µg/mL (≈ 0.595 µM). For the same compound, the MIC (Neisseria flavescens 11, Consensus) was 0.5 µg/mL (≈ 1.19 µM), the MIC (Neisseria flavescens 11, Replicate 1) was 0.5 µg/mL (≈ 1.19 µM) and the MIC (Neisseria flavescens 11, Replicate 2) was 1 µg/mL (≈ 2.38 µM). For the same compound, the MIC (Neisseria flavescens 11, Replicate 3) was 0.5 µg/mL (≈ 1.19 µM), the MIC (Neisseria flavescens 12, Consensus) was 0.064 µg/mL (≈ 0.152 µM) and the MIC (Neisseria flavescens 12, Replicate 1) was 0.064 µg/mL (≈ 0.152 µM). For the same compound, the MIC (Neisseria flavescens 12, Replicate 2) was 0.064 µg/mL (≈ 0.152 µM), the MIC (Neisseria flavescens 13, Consensus) was 1 µg/mL (≈ 2.38 µM) and the MIC (Neisseria flavescens 13, Replicate 1) was 1 µg/mL (≈ 2.38 µM). The MIC (Neisseria flavescens 13, Replicate 2) was 1 µg/mL (≈ 2.38 µM), the MIC (Neisseria flavescens 13, Replicate 3) was 1 µg/mL (≈ 2.38 µM) and the MIC (Neisseria flavescens 14, Consensus) was 1 µg/mL (≈ 2.38 µM). For the same compound, the MIC (Neisseria flavescens 14, Replicate 1) was 1 µg/mL (≈ 2.38 µM), the MIC (Neisseria flavescens 14, Replicate 2) was 1 µg/mL (≈ 2.38 µM) and the MIC (Neisseria flavescens 14, Replicate 3) was 1 µg/mL (≈ 2.38 µM). It also gave an MIC (Neisseria flavescens 15, Consensus) of 1 µg/mL (≈ 2.38 µM), an MIC (Neisseria flavescens 15, Replicate 1) of 1 µg/mL (≈ 2.38 µM) and an MIC (Neisseria flavescens 15, Replicate 2) of 1 µg/mL (≈ 2.38 µM). It also gave an MIC (Neisseria flavescens 15, Replicate 3) of 1 µg/mL (≈ 2.38 µM), an MIC (Neisseria flavescens 16, Consensus) of 0.25 µg/mL (≈ 0.595 µM) and an MIC (Neisseria flavescens 16, Replicate 1) of 0.25 µg/mL (≈ 0.595 µM). For the same compound, the MIC (Neisseria flavescens 16, Replicate 2) was 0.25 µg/mL (≈ 0.595 µM), the MIC (Neisseria flavescens 16, Replicate 3) was 0.25 µg/mL (≈ 0.595 µM) and the MIC (Neisseria flavescens 17, Consensus) was 1 µg/mL (≈ 2.38 µM). The MIC (Neisseria flavescens 17, Replicate 1) was 1 µg/mL (≈ 2.38 µM), the MIC (Neisseria flavescens 17, Replicate 2) was 0.5 µg/mL (≈ 1.19 µM) and the MIC (Neisseria flavescens 17, Replicate 3) was 1 µg/mL (≈ 2.38 µM). For the same compound, the MIC (Neisseria gonorrhoeae subspecies kochii 1, Consensus) was 0.016 µg/mL (≈ 0.0381 µM), the MIC (Neisseria gonorrhoeae subspecies kochii 1, Replicate 1) was 0.032 µg/mL (≈ 0.0761 µM) and the MIC (Neisseria gonorrhoeae subspecies kochii 1, Replicate 2) was 0.016 µg/mL (≈ 0.0381 µM). It also gave an MIC (Neisseria gonorrhoeae subspecies kochii 1, Replicate 3) of 0.016 µg/mL (≈ 0.0381 µM), an MIC (Neisseria gonorrhoeae subspecies kochii 2, Consensus) of 0.008 µg/mL (≈ 0.019 µM) and an MIC (Neisseria gonorrhoeae subspecies kochii 2, Replicate 1) of 0.008 µg/mL (≈ 0.019 µM). The MIC (Neisseria gonorrhoeae subspecies kochii 2, Replicate 2) was 0.008 µg/mL (≈ 0.019 µM), the MIC (Neisseria gonorrhoeae subspecies kochii 2, Replicate 3) was 0.008 µg/mL (≈ 0.019 µM) and the MIC (Neisseria gonorrhoeae subspecies kochii 3, Consensus) was 0.008 µg/mL (≈ 0.019 µM). The MIC (Neisseria gonorrhoeae subspecies kochii 3, Replicate 1) was 0.008 µg/mL (≈ 0.019 µM), the MIC (Neisseria gonorrhoeae subspecies kochii 3, Replicate 2) was 0.008 µg/mL (≈ 0.019 µM) and the MIC (Neisseria gonorrhoeae subspecies kochii 3, Replicate 3) was 0.008 µg/mL (≈ 0.019 µM). It also gave an MIC (Neisseria lactamica 1, Consensus) of 0.032 µg/mL (≈ 0.0761 µM), an MIC (Neisseria lactamica 1, Replicate 1) of 0.032 µg/mL (≈ 0.0761 µM) and an MIC (Neisseria lactamica 1, Replicate 2) of 0.064 µg/mL (≈ 0.152 µM).
